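Where inhibition never reached the appropriate level, the endpoint shown equals the highest concentration tested. Otherwise, values were interpolated linearly from a five-concentration, 48-hour dose response in 96-well plates. TGI denotes the concentration required for complete inhibition of growth.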
Key:
Assay in all cases: DTP human tumour cell line panel, 48 h
HCT-116 colon = system: HCT-116 colon
IGROV1 ovarian = system: IGROV1 ovarian
SNB-19 CNS = system: SNB-19 CNS
SK-MEL-28 melanoma = system: SK-MEL-28 melanoma
HL-60(TB) leukemia = system: HL-60(TB) leukemia
RXF 393 renal = system: RXF 393 renal
DMS 273 small cell lung = system: DMS 273 small cell lung
NCI-H460 lung = system: NCI-H460 lung
M14 melanoma = system: M14 melanoma
SR leukemia = system: SR leukemia
NCI-H23 lung = system: NCI-H23 lung
HOP-92 NSCLC = system: HOP-92 NSCLC
HOP-62 NSCLC = system: HOP-62 NSCLC
UO-31 renal = system: UO-31 renal
OVCAR-8 ovarian = system: OVCAR-8 ovarian
SK-OV-3 ovarian = system: SK-OV-3 ovarian
SF-268 CNS = system: SF-268 CNS
SNB-78 CNS = system: SNB-78 CNS
HT29 colon = system: HT29 colon
A549 NSCLC = system: A549 NSCLC
U251 CNS = system: U251 CNS
KM12 colon = system: KM12 colon
UACC-257 melanoma = system: UACC-257 melanoma
M19-MEL melanoma = system: M19-MEL melanoma
MOLT-4 leukemia = system: MOLT-4 leukemia
A498 renal = system: A498 renal
CCRF-CEM leukemia = system: CCRF-CEM leukemia
EKVX NSCLC = system: EKVX NSCLC
NCI-H522 lung = system: NCI-H522 lung
NCI-H226 lung = system: NCI-H226 lung
DMS 114 small cell lung = system: DMS 114 small cell lung
OVCAR-5 ovarian = system: OVCAR-5 ovarian
TK-10 renal = system: TK-10 renal
UACC-62 melanoma = system: UACC-62 melanoma
SF-295 CNS = system: SF-295 CNS
MDA-N = system: MDA-N
MALME-3M melanoma = system: MALME-3M melanoma
CAKI-1 renal = system: CAKI-1 renal
RPMI-8226 leukemia = system: RPMI-8226 leukemia
OVCAR-3 ovarian = system: OVCAR-3 ovarian
HS 578T breast = system: HS 578T breast
LOX IMVI melanoma = system: LOX IMVI melanoma
MDA-MB-231 breast = system: MDA-MB-231 breast
T-47D breast = system: T-47D breast
SF-539 CNS = system: SF-539 CNS
MCF7 breast = system: MCF7 breast
HCT-15 colon = system: HCT-15 colon
HCC-2998 colon = system: HCC-2998 colon
DU-145 prostate = system: DU-145 prostate
COLO 205 colon = system: COLO 205 colon
SW-620 colon = system: SW-620 colon
MDA-MB-435 = system: MDA-MB-435
SK-MEL-2 melanoma = system: SK-MEL-2 melanoma
PC-3 prostate = system: PC-3 prostate
SN12C renal = system: SN12C renal
SK-MEL-5 melanoma = system: SK-MEL-5 melanoma
SNB-75 CNS = system: SNB-75 CNS
NCI/ADR-RES ovarian = system: NCI/ADR-RES ovarian
OVCAR-4 ovarian = system: OVCAR-4 ovarian
BT-549 breast = system: BT-549 breast
ACHN renal = system: ACHN renal
786-0 renal = system: 786-0 renal
K-562 leukemia = system: K-562 leukemia

`COc1ccc(OC)c2c(=O)c3ccccc3[nH]c12` gave a TGI (HCT-116 colon) of over 100 µM, a TGI (IGROV1 ovarian) of over 100 µM and a TGI (SNB-19 CNS) of over 100 µM. The TGI (SK-MEL-28 melanoma) was over 100 µM, the TGI (HL-60(TB) leukemia) was over 100 µM and the TGI (RXF 393 renal) was over 100 µM. The TGI (DMS 273 small cell lung) was over 100 µM, the TGI (NCI-H460 lung) was over 100 µM and the TGI (M14 melanoma) was over 100 µM. It also gave a TGI (SR leukemia) of over 100 µM, a TGI (NCI-H23 lung) of over 100 µM and a TGI (HOP-92 NSCLC) of over 100 µM. For the same compound, the TGI (HOP-62 NSCLC) was over 100 µM, the TGI (UO-31 renal) was over 100 µM and the TGI (OVCAR-8 ovarian) was over 100 µM. It also gave a TGI (SK-OV-3 ovarian) of over 100 µM, a TGI (SF-268 CNS) of over 100 µM and a TGI (SNB-78 CNS) of over 100 µM. The TGI (HT29 colon) was over 100 µM, the TGI (A549 NSCLC) was over 100 µM and the TGI (U251 CNS) was over 100 µM. For the same compound, the TGI (KM12 colon) was over 100 µM, the TGI (UACC-257 melanoma) was over 100 µM and the TGI (M19-MEL melanoma) was over 100 µM. For the same compound, the TGI (MOLT-4 leukemia) was over 100 µM, the TGI (A498 renal) was over 100 µM and the TGI (CCRF-CEM leukemia) was over 100 µM. It also gave a TGI (EKVX NSCLC) of over 100 µM, a TGI (NCI-H522 lung) of over 100 µM and a TGI (NCI-H226 lung) of 94.1 µM. It also gave a TGI (DMS 114 small cell lung) of over 100 µM, a TGI (OVCAR-5 ovarian) of over 100 µM and a TGI (TK-10 renal) of over 100 µM. The TGI (UACC-62 melanoma) was over 100 µM.

`COc1ccc(N=Nc2c(N)nn3c(SC)c(C#N)c(N)nc23)cc1` gave a TGI (SF-295 CNS) of 39.5 µM, a TGI (MDA-N) of 26.7 µM and a TGI (HCT-116 colon) of 28.4 µM. It also gave a TGI (MALME-3M melanoma) of 31.7 µM, a TGI (IGROV1 ovarian) of 4.19 µM and a TGI (SNB-19 CNS) of 37.6 µM. For the same compound, the TGI (SK-MEL-28 melanoma) was 18.8 µM, the TGI (CAKI-1 renal) was 23.5 µM and the TGI (RPMI-8226 leukemia) was 6.28 µM. For the same compound, the TGI (OVCAR-3 ovarian) was 7.1 µM, the TGI (HS 578T breast) was 6.91 µM and the TGI (LOX IMVI melanoma) was 3.12 µM. For the same compound, the TGI (MDA-MB-231 breast) was 7.02 µM, the TGI (T-47D breast) was 4.3 µM and the TGI (HL-60(TB) leukemia) was 6.07 µM. For the same compound, the TGI (RXF 393 renal) was 19.5 µM, the TGI (SF-539 CNS) was 34.6 µM and the TGI (MCF7 breast) was 7.97 µM. For the same compound, the TGI (NCI-H460 lung) was 34.7 µM, the TGI (M14 melanoma) was 25.1 µM and the TGI (HCT-15 colon) was 26.4 µM. For the same compound, the TGI (SR leukemia) was 4.59 µM, the TGI (NCI-H23 lung) was 21.1 µM and the TGI (HOP-92 NSCLC) was 27.6 µM. It also gave a TGI (HOP-62 NSCLC) of 44 µM, a TGI (HCC-2998 colon) of 16.7 µM and a TGI (DU-145 prostate) of 19.3 µM. For the same compound, the TGI (COLO 205 colon) was 26.4 µM, the TGI (UO-31 renal) was 25.4 µM and the TGI (OVCAR-8 ovarian) was 11.7 µM. It also gave a TGI (SW-620 colon) of 22.8 µM, a TGI (SK-OV-3 ovarian) of 38.8 µM and a TGI (SF-268 CNS) of 11.4 µM. For the same compound, the TGI (HT29 colon) was 25.5 µM, the TGI (A549 NSCLC) was 36.9 µM and the TGI (MDA-MB-435) was 27.1 µM. The TGI (SK-MEL-2 melanoma) was 7.12 µM, the TGI (PC-3 prostate) was 21.5 µM and the TGI (U251 CNS) was 19.5 µM. The TGI (KM12 colon) was 30.2 µM, the TGI (UACC-257 melanoma) was 20.8 µM and the TGI (SN12C renal) was 19.1 µM. It also gave a TGI (SK-MEL-5 melanoma) of 34.7 µM, a TGI (SNB-75 CNS) of 40.6 µM and a TGI (MOLT-4 leukemia) of 7.53 µM. The TGI (NCI/ADR-RES ovarian) was 49.8 µM, the TGI (A498 renal) was 28.5 µM and the TGI (OVCAR-4 ovarian) was 35 µM. It also gave a TGI (CCRF-CEM leukemia) of 4.84 µM, a TGI (EKVX NSCLC) of 21.3 µM and a TGI (BT-549 breast) of 49.6 µM. For the same compound, the TGI (NCI-H522 lung) was 36.8 µM, the TGI (NCI-H226 lung) was 40.7 µM and the TGI (ACHN renal) was 28 µM. The TGI (786-0 renal) was 14.2 µM, the TGI (K-562 leukemia) was 4.65 µM and the TGI (OVCAR-5 ovarian) was 34.8 µM. The TGI (TK-10 renal) was 33.6 µM and the TGI (UACC-62 melanoma) was 20.4 µM.

— PubChem BioAssay (NCI)
